Values after ≈ are worked out from the molar mass of the structure shown.
Columns and labels:
[1] = target: OXA-10 (class D β-lactamase) (Pseudomonas aeruginosa, UniProt P14489); assay: β-Lactamase assay (nitrocefin colour change), OXA-10; assay type: biochemical; conditions: for OXA-10: Table 10, class symbols x/xx/xxx, key not given; for IC50: nitrocefin 100 μM, 10 nM enzyme, 5 min pre-incubation, read-out: IC50s OXA-10
Description: (§1) β-Lactamase Assays (TEM-1, P99, and OXA-10): The activity of the compounds of the invention (inhibitors) toward β-lactamases was evaluated using 96 well plates. The reaction mixture included 10 mM sodium phosphate, pH 7.0, 150 mM sodium chloride, 0.01% Triton X-100, 100 μM nitrocefin, 10 nM of β-lactamases (class A: TEM-1; class C: P99, or class D: OXA-10), and variable concentrations of the inhibitors in a total volume of 100 μL. β-Lactamases were pre-incubated with the compounds at room temperature for 5 minutes, and the assay was initiated by the addition of nitrocefin. The inhibition of the enzyme activity by the compounds was determined by monitoring color change (from yellow to red) of nitrocefin after 20 minutes. Stock solutions of the compounds were prepared in dimethyl sulfoxide (DMSO). No more than 5% DMSO was present in assays, unless noted otherwise. B1aR Assay: The surface domain of B1aR (1 μM) was added to each inhibitor (at various concentrations) in 100 mM sodium phosphate, 50 mM sodium bicarbonate, at pH 7.0. The reaction mixtures were incubated at room temperature for 20 minutes. BOCILLIN FL, a fluorogenic ligand, was added to a concentration of 20 μM in a final volume of 20 μL. The mixtures were incubated at 37° C. for 5 minutes, at which point the reactions were quenched by the addition of 15 μL of the SDS sample buffer (125 mM Tris, 4% SDS, 20% glycerol, 2% 2-mercaptoethanol, pH 6.8), and were boiled for 4 minutes. The samples were loaded onto 15% SDS-PAGE, the gel was developed and scanned using a Storm 840® Fluorimager. The fluorescent bands of BOCILLIN FL-labeled B1aR^S were analyzed by Image Quant 5.2 software. PBP2 Assay: The PBP2 assay was performed according to the methods of Villegas-Esterada et al. (J. Am. Chem. Soc. 2008, 130, 9212-9213).

[2] = target: TEM-1 (class A β-lactamase) (Escherichia coli, UniProt P62593); assay: β-Lactamase assay (nitrocefin colour change), TEM-1; assay type: biochemical; conditions: for TEM-1: Table 10, class symbols x/xx/xxx, key not given
Description: as §1

[3] = test system: methicillin-resistant strains of S. aureus; assay: MIC against methicillin-resistant S. aureus (Table 15); assay type: cell-based; conditions: Staphylococcus aureus, dissolved in 100% DMSO, diluted into Mueller Hinton II Broth to final 16 μg/mL
Description: Table 15 illustrates the inhibition of methicillin-resistant strains of S. aureus by selected compounds of the invention.

PBP2a = PBP2a (Staphylococcus aureus, UniProt P07944); assay: PBP2 assay (Villegas-Esterada et al.); assay type: biochemical; conditions: Table 10
Description: as §1

S. aureus NRS100 (Mec^R) = assay: MIC against S. aureus NRS100 (Table 14); assay type: cell-based, Staphylococcus aureus; conditions: for MIC: Staphylococcus aureus, compounds dissolved in DMSO or 1% sodium carbonate, read-out: MIC; for inhibitory activity (in words): Table 14
Description: The recited compounds were dissolved in DMSO or in 1% sodium carbonate and transferred into micro titer plate to final concentration of 1000 μg/mL.

[4] = target: P99 (class C β-lactamase) (Enterobacter cloacae, UniProt P05364); assay: β-Lactamase assay (nitrocefin colour change), P99; assay type: biochemical; conditions: for P99: Table 10, class symbols x/xx/xxx, key not given; for IC50: nitrocefin 100 μM, 10 nM enzyme, 5 min pre-incubation, read-out: IC50s P99
Description: as §1

surface domain of B1aR = surface domain of B1aR (Staphylococcus aureus, UniProt P18357); assay: B1aR assay (BOCILLIN FL labeling, SDS-PAGE); assay type: binding, Staphylococcus aureus (MRSA); conditions: Table 10; class symbols x/xx/xxx, key not given
Description: as §1

S. aureus NRS11 (Mec^S) = assay: MIC against S. aureus NRS11 (Table 13); assay type: cell-based, Staphylococcus aureus; conditions: for MIC: Staphylococcus aureus, compounds dissolved in DMSO or 1% sodium carbonate, read-out: MIC; for inhibitory properties (in words): Table 13
Description: All recited compounds were dissolved in DMSO or in 1% sodium carbonate and transferred to micro titer plates to final concentrations of 1000 μg/mL.

[5] = test system: Staphylococcus aureus NRS100 (COL); assay: MIC, Table 12; assay type: cell-based
Description: (§2) Table 12 illustrates the results and the minimal inhibitory concentration (MIC) for S. aureus, Enterococcus faecalis, Pseudomonas aeruginosa, Klebsiella pneumonia, and Proteus mirabilis. The inoculum is about 1.5×10^5 CFU/mL. The minimal inhibitory concentrations (MIC) were done in Muller-Hinton II Broth with the exception of Enterococcus faecalis ATCC 29212, which was done in Brain Heart Infusion Broth. The concentration of DMSO at 200 μg/mL was 10%.

[6] = test system: Enterococcus faecalis ATCC 29212; assay: MIC, Table 12; assay type: cell-based
Description: as §2

[7] = test system: Staphylococcus aureus NRS1 (Mec^r. Vani); assay: MIC, Table 12; assay type: cell-based
Description: as §2

[8] = test system: Staphylococcus aureus ATCC 29213; assay: MIC, Table 12; assay type: cell-based
Description: as §2

[9] = test system: Staphylococcus aureus (COLVA); assay: MIC, Table 12; assay type: cell-based
Description: as §2

P99 (class C β-lactamase), sequence (P05364 21-381): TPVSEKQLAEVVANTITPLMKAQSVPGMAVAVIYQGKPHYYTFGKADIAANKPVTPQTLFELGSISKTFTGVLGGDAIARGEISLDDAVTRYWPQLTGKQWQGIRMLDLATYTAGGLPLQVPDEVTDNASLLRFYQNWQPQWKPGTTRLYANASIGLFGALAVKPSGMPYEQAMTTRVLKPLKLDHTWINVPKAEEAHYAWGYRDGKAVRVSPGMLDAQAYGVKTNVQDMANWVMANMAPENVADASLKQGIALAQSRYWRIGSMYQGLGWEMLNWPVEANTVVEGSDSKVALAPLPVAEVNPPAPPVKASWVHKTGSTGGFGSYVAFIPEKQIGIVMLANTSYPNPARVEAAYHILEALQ
OXA-10 (class D β-lactamase), sequence (P14489 20-266, species assumed): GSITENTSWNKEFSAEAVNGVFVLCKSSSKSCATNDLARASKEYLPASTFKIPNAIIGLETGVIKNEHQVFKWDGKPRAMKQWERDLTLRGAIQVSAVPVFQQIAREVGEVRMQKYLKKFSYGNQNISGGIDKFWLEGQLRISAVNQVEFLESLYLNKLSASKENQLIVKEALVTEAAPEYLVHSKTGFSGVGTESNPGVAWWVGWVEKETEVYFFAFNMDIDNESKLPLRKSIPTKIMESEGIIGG
PBP2a, sequence (P07944 whole entry): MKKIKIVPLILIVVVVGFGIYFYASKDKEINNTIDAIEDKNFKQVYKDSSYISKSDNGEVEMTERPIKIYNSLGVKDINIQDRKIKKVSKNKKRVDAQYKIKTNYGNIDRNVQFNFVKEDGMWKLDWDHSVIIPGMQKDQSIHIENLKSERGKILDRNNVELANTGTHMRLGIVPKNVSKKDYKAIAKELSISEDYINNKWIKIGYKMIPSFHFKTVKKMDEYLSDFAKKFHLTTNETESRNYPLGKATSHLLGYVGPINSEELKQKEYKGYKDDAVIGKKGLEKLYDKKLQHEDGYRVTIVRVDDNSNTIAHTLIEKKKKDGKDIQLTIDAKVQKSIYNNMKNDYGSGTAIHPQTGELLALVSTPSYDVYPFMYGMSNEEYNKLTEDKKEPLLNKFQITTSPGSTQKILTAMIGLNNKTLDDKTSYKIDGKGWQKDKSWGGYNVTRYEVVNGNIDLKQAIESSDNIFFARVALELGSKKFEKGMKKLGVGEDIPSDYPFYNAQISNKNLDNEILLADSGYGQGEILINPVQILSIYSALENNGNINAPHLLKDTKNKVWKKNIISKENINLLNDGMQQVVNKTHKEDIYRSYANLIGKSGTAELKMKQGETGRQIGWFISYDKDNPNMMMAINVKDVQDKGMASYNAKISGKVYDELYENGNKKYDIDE
surface domain of B1aR, sequence (P18357 331-585): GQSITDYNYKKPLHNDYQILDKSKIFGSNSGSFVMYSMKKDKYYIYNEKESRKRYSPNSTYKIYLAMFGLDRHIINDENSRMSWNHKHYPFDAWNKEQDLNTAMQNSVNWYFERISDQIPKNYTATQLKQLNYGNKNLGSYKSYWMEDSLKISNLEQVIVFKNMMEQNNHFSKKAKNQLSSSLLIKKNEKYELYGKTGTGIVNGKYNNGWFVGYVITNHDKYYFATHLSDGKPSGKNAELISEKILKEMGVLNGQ
TEM-1 (class A β-lactamase), sequence (P62593 24-286 limits assumed): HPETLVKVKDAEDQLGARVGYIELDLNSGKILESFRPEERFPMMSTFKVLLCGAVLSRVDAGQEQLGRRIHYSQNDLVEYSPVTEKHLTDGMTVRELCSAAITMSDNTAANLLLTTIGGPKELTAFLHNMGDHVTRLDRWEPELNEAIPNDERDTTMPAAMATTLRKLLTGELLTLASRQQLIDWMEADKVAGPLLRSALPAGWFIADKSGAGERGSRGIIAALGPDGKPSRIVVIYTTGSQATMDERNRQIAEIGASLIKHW

Row | SMILES | OXA-10 [1] | IC50 [1] [µM] | IC50 [2] [nM] | TEM-1 [2] | MIC [3] [µg/mL] | PBP2a* (inhibitory concentration) (PBP2a) | MIC (S. aureus NRS100 (Mec^R)) [µg/mL] | P99 [4] | IC50 [4] [µM] | BlaR (surface domain of B1aR) | also measured
1 | CCCCCCCCOc1ccc(NC(=O)c2ccccc2C(=O)O)cc1Cl [Compound 300] | xx | 30.7 ± 2.8 | 700 ± 80 | xxx | 16 (≈ 39.6 µM) | xxx | 8 (≈ 19.8 µM) | xx | 10.3 ± 0.4 |  | 
2 | CCCCCCCCOc1ccc(NC(=O)c2c(Br)c(Br)c(Br)c(Br)c2C(=O)O)cc1Cl [Compound 303] |  |  |  |  | 4 (≈ 5.56 µM) |  | 4 (≈ 5.56 µM) |  |  | xx | 
3 | CCCCCCCCOc1ccc(NC(=O)c2c(Cl)c(Cl)c(Cl)c(Cl)c2C(=O)O)cn1 [Compound 345] | xxx | 37.9 ± 6 | 4900 ± 200 | xxx | 16 (≈ 31.5 µM) |  | 16 (≈ 31.5 µM) | xxx | 27.8 ± 2.9 |  | MIC (S. aureus NRS11 (Mec^S)): 16 µg/mL (≈ 31.5 µM); inhibitory properties (in words) (S. aureus NRS11 (Mec^S)): significant inhibitory properties; inhibitory activity (in words) (S. aureus NRS100 (Mec^R)): significant inhibitory activity
4 | CCCCCCCCOc1ccc(NC(=O)c2c(Br)c(Br)c(Br)c(Br)c2C(=O)O)cn1 [Compound 346] | xxx | 13.1 ± 0.8 | 2800 ± 300 | xxx | 8 (≈ 11.7 µM) |  | < 8 | xxx | 7.8 ± 1.2 |  | MIC (S. aureus NRS11 (Mec^S)): < 8 µg/mL; inhibitory properties (in words) (S. aureus NRS11 (Mec^S)): significant inhibitory properties; inhibitory activity (in words) (S. aureus NRS100 (Mec^R)): significant inhibitory activity
5 | Cc1ccccc1COc1ccc(NC(=O)c2c(Br)c(Br)c(Br)c(Br)c2C(=O)O)cc1Cl [Compound 386] | xxx | 31.6 ± 3.5 | 7400 ± 1200 | xxx | 16 (≈ 22.5 µM) | xxx | 8 (≈ 11.2 µM) | xxx | 15.3 ± 1.6 | xxx | 
6 | O=C(O)c1c(Br)c(Br)c(Br)c(Br)c1C(=O)Nc1ccc(OCc2cccc(C(F)(F)F)c2)c(Cl)c1 [Compound 390] | xxx | 14.2 ± 1.1 | 1900 ± 100 | xxx | 8 (≈ 10.5 µM) | xxx | < 8 | xxx | 6 ± 0.8 |  | MIC (S. aureus NRS11 (Mec^S)): < 8 µg/mL; inhibitory activity (in words) (S. aureus NRS100 (Mec^R)): significant inhibitory activity
7 | O=C(O)c1c(Cl)c(Cl)c(Cl)c(Cl)c1C(=O)Nc1ccc(Oc2cc(C(F)(F)F)cc(C(F)(F)F)c2)cc1 [Compound 413] | xxx | 80.8 ± 7 | 27000 ± 2900 | xxx | 16 (≈ 26.4 µM) | xxx | 8 (≈ 13.2 µM) | xxx | 31.2 ± 6.4 |  | 
8 | O=C(O)c1c(Br)c(Br)c(Br)c(Br)c1C(=O)Nc1ccc(Oc2cc(C(F)(F)F)cc(C(F)(F)F)c2)cc1 [Compound 414] | xxx | 19.5 ± 2 | 4500 ± 400 | xxx | 4 (≈ 5.1 µM) | xxx | 4 (≈ 5.1 µM) | xxx | 12 ± 0.5 | xxx | 
9 | O=C(O)c1c(Cl)c(Cl)c(Cl)c(Cl)c1C(=O)Nc1ccc(OCc2cccc(OC(F)(F)F)c2)c(Cl)c1 [Compound 419] | xxx | 10.8 ± 0.7 | 2300 ± 100 | xxx | 8 (≈ 13.3 µM) | xxx | 8 (≈ 13.3 µM) | xx | 13 ± 2 | xxx | 
10 | O=C(O)c1c(Br)c(Br)c(Br)c(Br)c1C(=O)Nc1ccc(OCc2cccc(OC(F)(F)F)c2)c(Cl)c1 [Compound 420] | xxx | 8.4 ± 1.1 | 1600 ± 100 | xxx | 4 (≈ 5.12 µM) | xxx | 8 (≈ 10.2 µM) | xx | 6.9 ± 1.5 | xxx | 
11 | Cc1onc(-c2ccccc2)c1C(=O)N[C@@H]1C(=O)N2[C@@H]1SC(C)(C)[C@@H]2C(=O)O [Oxaxillian, reference compound] |  |  |  |  |  |  |  |  |  |  | MIC ([5]; Staphylococcus aureus NRS100 (COL), Muller-Hinton II Broth): 500 µg/mL (≈ 1250 µM); MIC ([6]; Enterococcus faecalis ATCC 29212, Brain Heart Infusion Broth, inoculum about 1.5×10^5 CFU/mL): 8 µg/mL (≈ 19.9 µM); MIC ([7]; Staphylococcus aureus NRS1 (Mec^r. Vani), Muller-Hinton II Broth): 500 µg/mL (≈ 1250 µM); MIC ([8]; Staphylococcus aureus ATCC 29213, Muller-Hinton II Broth): <0.5 µg/mL; MIC ([9]; Staphylococcus aureus (COLVA), Muller-Hinton II Broth): 500 µg/mL (≈ 1250 µM)
12 | CN[C@H](CC(C)C)C(=O)N[C@H]1C(=O)N[C@@H](CC(N)=O)C(=O)N[C@H]2C(=O)N[C@H]3C(=O)N[C@H](C(=O)N[C@H](C(=O)O)c4cc(O)cc(O)c4-c4cc3ccc4O)[C@H](O)c3ccc(c(Cl)c3)Oc3cc2cc(c3O[C@@H]2O[C@H](CO)[C@@H](O)[C@H](O)[C@H]2O[C@H]2C[C@](C)(N)[C@H](O)[C@H](C)O2)Oc2ccc(cc2Cl)[C@H]1O [Vancomycin, reference compound] |  |  |  |  |  |  |  |  |  |  | MIC ([5]; Staphylococcus aureus, NRS100): 1 µg/mL (≈ 0.69 µM); MIC ([6]; Enterococcus faecalis, ATCC29212): 4 µg/mL (≈ 2.76 µM); MIC ([7]; Staphylococcus aureus, NRS1): 4 µg/mL (≈ 2.76 µM); MIC ([8]; Staphylococcus aureus, ATCC29213): 1 µg/mL (≈ 0.69 µM); MIC ([9]; Staphylococcus aureus): 1000 µg/mL (≈ 690 µM)

Source: US8859620B2, “Phthalanilate compounds and methods of use” (University of Notre Dame du Lac, priority 2009, dated 2014)
